Source: PubChem BioAssay AID1996
In brackets after ≈: the same amount, converted by molar mass.

Conditions: buffer; pH 7.4; 200.0 µM

SMILES | solubility kinetic
CC1(C)CC(NC(=O)Cc2ccc(Cl)cc2)CC(C)(C)N1 | > 46.3 µg/mL
CC(NC(=S)NC(=O)c1ccccc1Br)c1ccccc1 (stereo not drawn) | 4.9 µg/mL (≈ 13.5 µM)
C=CCOc1cccc(CNCc2ccncc2)c1 | 28 µg/mL (≈ 110 µM)
N#C/C(=C\c1cccnc1)c1nc2ccccc2[nH]1 | 27.4 µg/mL (≈ 111 µM)
CC(=O)c1ccccc1NC(=O)CSc1nc2ccccc2c(=O)n1CCCN1CCOCC1 | 1.8 µg/mL (≈ 3.75 µM)
COc1cc(-c2cc(C(=O)Nc3ccc(C)c(S(=O)(=O)N4CCOCC4)c3)c3ccccc3n2)cc(OC)c1OC | 6.7 µg/mL (≈ 11.6 µM)
COc1ccccc1NS(=O)(=O)c1cc(N)ccc1N1CCCCC1 | 6.1 µg/mL (≈ 16.9 µM)
CC(=O)Nc1scc(C)c1-c1nc2ccccc2s1 | < 0.3 µg/mL
CN(c1cccc(NC(=O)c2ccc(C(C)(C)C)cc2)c1)S(C)(=O)=O | < 0.4 µg/mL
COC(=O)c1sccc1NC(=O)c1ccc(OC)c([N+](=O)[O-])c1 | < 0.4 µg/mL
CC1COC(Cn2c3ccccc3c3ccccc32)O1 (stereo not drawn) | 12.1 µg/mL (≈ 45.3 µM)
O=C(COC(=O)/C=C/c1cccc([N+](=O)[O-])c1)Nc1cccnc1Cl | 2.1 µg/mL (≈ 5.81 µM)
O=C(CN1C(=O)c2ccccc2S1(=O)=O)c1ccc(F)cc1 | 9.7 µg/mL (≈ 30.4 µM)
CCS(=O)(=O)c1c(S(=O)(=O)CC)c2ccccn2c1C(N)=O | > 51.7 µg/mL
Cc1[nH]c2ccccc2c1C(=O)C(=O)N1CCOCC1 | > 40.8 µg/mL
CCN(CC)S(=O)(=O)c1cccc(C(=O)N[C@H](C(=O)NC2=NCCS2)C(C)C)c1 | 64.5 µg/mL (≈ 146 µM)
Cc1ccc(NC(=S)NCC2CCN(C(C)c3ccccc3)C2)cc1 (stereo not drawn) | > 53 µg/mL
CCc1nccn1S(=O)(=O)c1cc(OC)ccc1OC | 32.9 µg/mL (≈ 111 µM)
COc1ccc(C(CC(=O)NCc2ccccc2)C(C)C)cc1 (stereo not drawn) | 10.1 µg/mL (≈ 32.4 µM)
Cc1ccc(NC(=O)CCc2ccc(C)o2)c(Br)c1 | 4.2 µg/mL (≈ 13 µM)
CC(C)[C@H](N[C@@H](C)c1ccccc1)c1c(O)ccc2ccccc12 | 2.2 µg/mL (≈ 6.89 µM)
O=C(Cn1cc(/C=C\[N+](=O)[O-])c2ccccc21)Nc1ccccc1 | 2.2 µg/mL (≈ 6.85 µM)
CC1CCc2onc(C(=O)NCc3ccco3)c2C1 (stereo not drawn) | 22.6 µg/mL (≈ 86.8 µM)
COc1cccc(C(=O)NOCc2ccc(C)cc2)c1OC | > 45.2 µg/mL

SMILES | solubility kinetic
CN1CCN(C(=O)C2CCC(C)(C(=O)O)C2(C)C)CC1 (stereo not drawn) | 40.5 µg/mL (≈ 143 µM)
CC(=O)c1cc(F)ccc1OCC(=O)Nc1ccc2c(c1)OCO2 | 7.8 µg/mL (≈ 23.5 µM)
CCc1ccccc1NC(=O)c1ccc(-c2csc(C)n2)cc1 | 1 µg/mL (≈ 3.1 µM)
CC(C)c1cccc(C(C)C)c1OC(=O)NC(=O)c1c(F)cccc1F | 17.4 µg/mL (≈ 48.1 µM)
CCS(=O)(=O)C(C)(CCl)C(=O)Nc1ccc(C(=O)OC)cc1 (stereo not drawn) | > 52.2 µg/mL
COc1ccc(OCCNC(=O)Nc2cc(F)c(F)cc2Cl)cc1 | < 0.4 µg/mL
Cc1ccc2c(COC(=O)CNC(=O)c3ccco3)cc(=O)oc2c1C | 13.1 µg/mL (≈ 36.9 µM)
CC(=O)Nc1ccc(OCC(O)Cn2cncn2)cc1 (stereo not drawn) | > 41.4 µg/mL
COc1cc(C(C)=O)ccc1OCC(=O)Nc1cc(C)on1 | 8.3 µg/mL (≈ 27.3 µM)
C/C(=N\OC(=O)c1ccccc1)c1c(C)nc2cc(C)ccn12 | 44.7 µg/mL (≈ 145 µM)
Cc1ccccc1OCCCN1CCOCC1 | 31.3 µg/mL (≈ 133 µM)
CN1C(=O)N(C)C(c2ccccc2Cl)C2=C1CC(C)(C)CC2=O (stereo not drawn) | > 49.9 µg/mL
COC(=O)C/C(N)=C(\C#N)C(=O)OC | > 29.7 µg/mL
O=C(CNC(=O)c1cccs1)NCCc1ccco1 | > 41.7 µg/mL
O=C(Nc1ccccc1C(=O)N1CCCCCC1)c1ccc(F)cc1 | > 51.1 µg/mL
CS(=O)(=O)c1ccc2nc(NC(=O)C3CCCO3)sc2c1 (stereo not drawn) | 43.8 µg/mL (≈ 134 µM)
c1ccc(Oc2nc(-c3cccnc3)nc3ccccc23)cc1 | 0.7 µg/mL (≈ 2.34 µM)
CC(C)OC(=O)c1ccc2nc3ccccc3nc2c1 | 1 µg/mL (≈ 3.76 µM)
CCOC(=O)N1CCN(S(=O)(=O)c2ccc([N+](=O)[O-])cc2)CC1 | 36.9 µg/mL (≈ 107 µM)
COC(=O)c1cn(Cc2cc(OC)ccc2OC)cc(F)c1=O | > 48.2 µg/mL
O=C(CCNC(=O)c1ccc([N+](=O)[O-])cc1)NCc1cccs1 | > 50 µg/mL
O=C(Nc1ccc(F)cc1)C(Cc1ccccc1)n1cccc1 (stereo not drawn) | 31.4 µg/mL (≈ 102 µM)
COc1ccc(C)cc1Nc1nc(N)c2cc(OC)c(OC)cc2n1 | 40.1 µg/mL (≈ 118 µM)
CN1CCN(CCCNC(=O)Nc2ccc([N+](=O)[O-])cc2)CC1 | 44.8 µg/mL (≈ 139 µM)

SMILES | solubility kinetic
COc1ccc(/C(N)=N/OC(=O)CCc2ccccc2)cc1 | 9.9 µg/mL (≈ 33.2 µM)
O=C(O)C1C2C=CC(C2)C1C(=O)Nc1cccc(Cl)c1 (stereo not drawn) | 42.8 µg/mL (≈ 147 µM)
O=C(/C=C/c1cccc(F)c1)OCC(=O)N1CCc2ccccc21 | 3.2 µg/mL (≈ 9.84 µM)
COC(=O)c1ccccc1NC(=O)COC(=O)[C@H](C)NC(N)=O | > 48.5 µg/mL
O=C(COc1ccc(F)c(Cl)c1)N1CCCCCCC1 | 32.8 µg/mL (≈ 109 µM)
CC(C)(C)c1ccc(C(=O)NC(=S)NCc2ccco2)cc1 | 0.6 µg/mL (≈ 1.9 µM)
COc1ccc(N2CCN(C(=O)c3cccnc3)CC2)c([N+](=O)[O-])c1 | 36.6 µg/mL (≈ 107 µM)
O=S(=O)(c1ccccc1)c1nc(NC2CC2)sc1Cl | 42.8 µg/mL (≈ 136 µM)
CCOC(=O)c1cn2nc(N3CCCCC3)ccc2n1 | > 41.1 µg/mL
Cc1ccc(C(=O)N2C3=C(CCCC3)C(=O)NC23CCCCC3)cc1 | 2.1 µg/mL (≈ 6.2 µM)
COc1ccc(CC(=O)O/N=C(\N)c2ccccn2)cc1 | > 42.8 µg/mL
CCC(C)Nc1nc(N)c([N+](=O)[O-])c(Nc2cc(OC)ccc2OC)n1 (stereo not drawn) | 1.2 µg/mL (≈ 3.31 µM)
CN(C)C(=O)C[n+]1ccc(C(N)=O)cc1.[Cl-] | 35.4 µg/mL
C[N+](C)(C)Cc1ccccc1.[Cl-] | > 27.9 µg/mL
CCc1cc(=O)oc2cc(OCC(=O)N3CCC[C@H]3C(=O)O)ccc12 | > 51.8 µg/mL
O=C(OCC(=O)N1CCCC1)c1c[nH]c2ccccc12 | > 40.8 µg/mL
O=S(=O)(Cc1ccccc1)Cc1cnc(Cl)s1 | > 43.2 µg/mL
Cc1ccc(CSCc2ccc(C(=O)NCCC(C)C)o2)cc1 | 2.2 µg/mL (≈ 6.64 µM)
CC1CCC(NC(=O)CCNS(=O)(=O)c2ccccc2)CC1 (stereo not drawn) | > 48.7 µg/mL
N/C(COc1ccc(Cl)cc1Cl)=N\O | 28.8 µg/mL (≈ 123 µM)
Cc1ccc(C(=O)NC(C)c2ccc3c(c2)OCO3)s1 (stereo not drawn) | > 43.4 µg/mL
O=C(NCC(c1ccco1)N1CCCCC1)c1ccc(S(=O)(=O)Nc2ccccc2Cl)cc1 (stereo not drawn) | 17.7 µg/mL (≈ 36.3 µM)
O=C(Nc1ccc2c(c1)CCC2)c1cccs1 | 30.8 µg/mL (≈ 127 µM)
CCc1nc2ccccc2n1CC(=O)NC1CCS(=O)(=O)C1 (stereo not drawn) | > 48.2 µg/mL

SMILES | solubility kinetic
O=C(COC(=O)c1ccc(Cl)cc1[N+](=O)[O-])NC(=O)c1ccccc1 | 4.8 µg/mL (≈ 13.2 µM)
CC(C)(/C=N/O)N(O)C=C1C=CC(=O)C=C1 | > 33.3 µg/mL
CCOc1ccc(-n2c(C)c(C(=O)OC)c3cc(O)ccc32)cc1 | < 0.7 µg/mL
Nc1cccc(CCc2ccncc2)c1 | > 29.7 µg/mL
O=C(C1COc2ccccc2O1)N1CCN(c2ccc([N+](=O)[O-])cc2)CC1 (stereo not drawn) | 7.7 µg/mL (≈ 20.8 µM)
Cc1nnc(SCC(=O)Nc2ccccc2F)n(N)c1=O | > 46.4 µg/mL
Cn1nccc1C(=O)N1CCOCC1 | > 29.3 µg/mL
Cc1cc(C)cc(C(N)=Nc2cccc(C#N)c2)c1 | > 37.4 µg/mL
O=C(COC(=O)CCC(=O)c1ccc(F)cc1)NCc1ccco1 | > 50 µg/mL
O=C(Nc1ccc(F)cc1)NC1CCN(Cc2c(F)cccc2Cl)CC1 | 2.8 µg/mL (≈ 7.37 µM)
O=C(/C=C/c1c(F)cccc1Cl)NCCCN1CCOCC1 | > 49 µg/mL
O=C1CSC(c2ccccc2)N1Cc1ccccc1 (stereo not drawn) | 31.3 µg/mL (≈ 116 µM)
NC(=O)COC(=O)c1ccc2c(c1)S(=O)(=O)c1ccccc1C2=O | 7.5 µg/mL (≈ 21.7 µM)
COc1ccc(OC)c(NC(=O)CCCSc2ccccc2)c1 | 13.7 µg/mL (≈ 41.3 µM)
O=C(NC(=O)c1ccc(C(F)(F)F)cc1)Nc1ccc(-c2cnco2)cc1 | 2.8 µg/mL (≈ 7.46 µM)
CC(O)Cn1cnc2c1c(=O)n(C)c(=O)n2C (stereo not drawn) | > 35.7 µg/mL
CC(=O)Nc1ccc(S(=O)(=O)NC2CCCCCC2)cc1 | 35.1 µg/mL (≈ 113 µM)
Cc1ccc(C)c(C(C)NC(=S)NC2CCCCC2)c1 (stereo not drawn) | 10.7 µg/mL (≈ 36.8 µM)
Cc1sc2nc(-c3ccc(Br)cc3)oc(=O)c2c1C | < 0.7 µg/mL
O=C(Cn1c(=O)oc2ccccc21)Nc1ccc(Br)cc1 | 2.1 µg/mL (≈ 6.05 µM)
CCCCN1C(=O)N(C)C2NC(=S)NC21 (stereo not drawn) | > 34.2 µg/mL
COc1ccc([N+](=O)[O-])cc1NC(=S)NC(C)=O | 2 µg/mL (≈ 7.43 µM)
O=C(Cc1ccccc1)c1c[nH]c(C(=O)NC2CCCC2)c1 | 2.6 µg/mL (≈ 8.77 µM)
O=C(CSC(=S)N1CCCC1)c1ccccc1 | < 0.6 µg/mL

SMILES | solubility kinetic
CCOC(=O)Cc1csc(SCC(=O)N2CCN(c3ccccc3)CC2)n1 | > 60.8 µg/mL
CN1CCN(C(=O)N(c2ccccc2)c2ccccc2)CC1.Cl | > 49.8 µg/mL
CC1CN(C(=O)CCNC(=O)c2ccc(Cl)cc2)CC(C)O1 (stereo not drawn) | 42.1 µg/mL (≈ 130 µM)
COc1cc(C(=O)NC(=S)N(CCC#N)Cc2cccnc2)cc(OC)c1OC | 59.3 µg/mL (≈ 143 µM)
Cc1ccc(Cl)c(NC(=O)CN2CCN(C=O)CC2)c1 | 36.6 µg/mL (≈ 124 µM)
Cl.NC(N)=NC(N)=NCCc1ccccc1 | > 36.3 µg/mL
Cl.OC(CNCC#Cc1ccccc1)c1ccccc1 (stereo not drawn) | 35.9 µg/mL
O=C(NC(=S)N1CCCC1)c1cccc([N+](=O)[O-])c1 | 39.5 µg/mL (≈ 141 µM)
CC(=O)N/C(N)=N/c1nc(=O)c2ccccc2s1 | 3.5 µg/mL (≈ 13.3 µM)
CC(=O)Nc1ccc(NC(=O)c2c(-c3ccccc3)noc2C)cn1 | 11.1 µg/mL (≈ 33 µM)
COCC(=O)N1CCCC(C(=O)c2ccc3c4c(cccc24)CC3)C1 (stereo not drawn) | 49.8 µg/mL (≈ 148 µM)
CN(C(=O)c1ccccc1)C1c2c(ccc3ccccc23)OCC1CO (stereo not drawn) | < 0.7 µg/mL
CCOC(=O)C1CCC(CNCc2ccccc2C)CC1.Cl (stereo not drawn) | 44.3 µg/mL
Cc1ccc(-c2nc(CNC(=O)c3cc(C)on3)cs2)cc1 | 35.4 µg/mL (≈ 113 µM)
Cl.NS(=O)(=O)c1ccc(CCNCC#Cc2ccccc2)cc1 | > 52.6 µg/mL
COc1ccc(CNC(=O)C(=O)NC2CC(C)(C)NC(C)(C)C2)cc1 | > 52.1 µg/mL
Nc1ccc(C(=O)OCc2nc3ccccc3s2)cc1 | 27 µg/mL (≈ 95 µM)
COC(=O)c1ccsc1NC(=O)CCc1ccccc1 | 9.6 µg/mL (≈ 33.2 µM)
N#Cc1ccc(NC(=O)c2cc(-c3cccs3)on2)cc1 | < 0.2 µg/mL
N#C/C(=C\c1ccc2c(c1)OCCO2)C(=O)Nc1nccs1 | 28.8 µg/mL (≈ 91.9 µM)
Cc1cccc(NC(=O)[C@@H]2CCCN2S(=O)(=O)c2ccc(Cl)cc2)c1 | 37.9 µg/mL (≈ 100 µM)
Cc1cc(NC(=O)CN(C)C)c([N+](=O)[O-])cc1C | 4.1 µg/mL (≈ 16.3 µM)
